Measurements as given in the NIST ThermoML archive (doi:10.1021/acs.jced.8b00460).
± gives the expanded uncertainty stated by the source.

Details: 511.35 K; Liquid; Ebulliometric method (Recirculating still)

vapor or sublimation pressure: 1.015 ± 0.1 kPa
Structure (SMILES): O=C(OCCOCCOC(=O)c1ccccc1)c1ccccc1 [diethylene glycol dibenzoate]
